Results as given in the NIST ThermoML archive (doi:10.1016/j.tca.2012.12.008).

Test: xn = mol fraction of the nth substance listed
Settings: 101 kPa, Liquid; for viscosity: Capillary tube (Ostwald / Ubbelohde) method; for mass density: Vibrating tube method

CCC(C)=O [butanone] + CC(C)O
Settings	mass density, 298.15 K [kg/m3]	mass density, 303.15 K [kg/m3]	mass density, 308.15 K [kg/m3]	mass density, 313.15 K [kg/m3]	viscosity, 298.15 K [mPa·s]	viscosity, 303.15 K [mPa·s]	viscosity, 308.15 K [mPa·s]	viscosity, 313.15 K [mPa·s]
x1 = 0.0819	782.25	777.85	772.94	768.48	1.657	1.503	1.371	1.245
x1 = 0.1607	783.38	778.97	774.09	769.53	1.358	1.286	1.208	1.139
x1 = 0.24	784.62	780.11	775.17	770.66	1.142	1.11	1.077	1.041
x1 = 0.349	786.42	781.79	776.85	772.33	0.939	0.924	0.909	0.895
x1 = 0.4405	788.05	783.31	778.38	773.86	0.818	0.807	0.795	0.784
x1 = 0.5593	790.28	785.48	780.55	776.07	0.702	0.686	0.669	0.654
x1 = 0.6511	792.07	787.24	782.38	777.9	0.626	0.607	0.587	0.569
x1 = 0.7392	793.87	789.03	784.21	779.74	0.551	0.539	0.527	0.515
x1 = 0.8496	796.19	791.36	786.58	782.16	0.465	0.456	0.448	0.44
x1 = 0.937	798.09	793.22	788.46	784.11	0.417	0.406	0.396	0.386
x1 = 1	799.48	794.63	789.9	785.52	0.381	0.368	0.352	0.339

CCCCC(C)O (stereo not given) [2-hexanol] + CCC(C)=O
Settings	mass density, 298.15 K [kg/m3]	mass density, 303.15 K [kg/m3]	mass density, 308.15 K [kg/m3]	mass density, 313.15 K [kg/m3]	viscosity, 298.15 K [mPa·s]	viscosity, 303.15 K [mPa·s]	viscosity, 308.15 K [mPa·s]	viscosity, 313.15 K [mPa·s]
x2 = 0	810.14	806.13	802.06	797.96	4.101	3.411	2.819	2.219
x2 = 0.0874	808.49	804.57	800.48	796.34	3.085	2.587	2.145	1.714
x2 = 0.1661	807.21	803.17	799.05	794.87	2.413	2.035	1.684	1.358
x2 = 0.2482	805.92	801.8	797.59	793.4	1.909	1.63	1.361	1.086
x2 = 0.355	804.36	800.03	795.83	791.6	1.454	1.232	1.027	0.826
x2 = 0.4463	803.2	798.8	794.5	790.25	1.178	0.998	0.831	0.692
x2 = 0.5671	801.84	797.36	792.94	788.71	0.889	0.775	0.678	0.592
x2 = 0.6534	801.04	796.47	792.02	787.75	0.718	0.647	0.587	0.536
x2 = 0.7422	800.4	795.74	791.22	786.94	0.603	0.564	0.525	0.487
x2 = 0.8547	799.91	795.09	790.45	786.14	0.505	0.479	0.449	0.419
x2 = 0.942	799.62	794.76	790.06	785.68	0.429	0.41	0.388	0.366

CCCC(C)O (stereo not given) [pentan-2-ol] + CCC(C)=O
Settings	mass density, 298.15 K [kg/m3]	mass density, 303.15 K [kg/m3]	mass density, 308.15 K [kg/m3]	mass density, 313.15 K [kg/m3]	viscosity, 298.15 K [mPa·s]	viscosity, 303.15 K [mPa·s]	viscosity, 308.15 K [mPa·s]	viscosity, 313.15 K [mPa·s]
x2 = 0	805.41	801.21	796.64	792.51	3.478	2.801	2.335	1.993
x2 = 0.0852	804.2	799.84	795.37	791.21	2.516	2.204	1.894	1.662
x2 = 0.1643	803.1	798.76	794.25	790.05	2.008	1.786	1.581	1.429
x2 = 0.2456	802.1	797.76	793.2	788.94	1.592	1.439	1.316	1.217
x2 = 0.3511	801	796.62	791.97	787.7	1.183	1.103	1.038	0.992
x2 = 0.4422	800.24	795.77	791.11	786.83	0.92	0.891	0.86	0.832
x2 = 0.5632	799.6	794.94	790.27	785.94	0.702	0.693	0.683	0.673
x2 = 0.6508	799.3	794.56	789.87	785.47	0.62	0.608	0.595	0.583
x2 = 0.7416	799.14	794.34	789.63	785.18	0.569	0.548	0.528	0.507
x2 = 0.8512	799.2	794.26	789.56	785.05	0.48	0.463	0.445	0.427
x2 = 0.941	799.31	794.39	789.76	785.17	0.428	0.407	0.385	0.364

CCCCCC(C)O (stereo not given) [2-heptanol] + CCC(C)=O
Settings	mass density, 298.15 K [kg/m3]	mass density, 303.15 K [kg/m3]	mass density, 308.15 K [kg/m3]	mass density, 313.15 K [kg/m3]	viscosity, 298.15 K [mPa·s]	viscosity, 303.15 K [mPa·s]	viscosity, 308.15 K [mPa·s]	viscosity, 313.15 K [mPa·s]
x2 = 0	813.18	809.26	805.01	801.14	5.003	4.152	3.478	2.853
x2 = 0.0834	811.4	807.5	803.22	799.4	3.89	3.282	2.749	2.282
x2 = 0.1619	809.92	805.97	801.7	797.73	3.091	2.614	2.21	1.846
x2 = 0.2426	808.4	804.47	800.16	796.12	2.441	2.083	1.758	1.478
x2 = 0.3491	806.63	802.53	798.16	794.11	1.793	1.528	1.303	1.095
x2 = 0.4375	805.3	801.03	796.6	792.53	1.367	1.184	1.021	0.895
x2 = 0.5661	803.5	799.1	794.57	790.44	0.901	0.818	0.746	0.684
x2 = 0.6502	802.41	797.92	793.35	789.19	0.712	0.659	0.613	0.581
x2 = 0.7371	801.4	796.84	792.26	788.05	0.592	0.552	0.513	0.481
x2 = 0.8498	800.4	795.59	790.95	786.69	0.451	0.434	0.416	0.399
x2 = 0.9401	799.73	794.95	790.35	786	0.398	0.386	0.373	0.361

CCC(C)=O [butanone] + CCC(C)O
Settings	mass density, 298.15 K [kg/m3]	mass density, 303.15 K [kg/m3]	mass density, 308.15 K [kg/m3]	mass density, 313.15 K [kg/m3]	viscosity, 298.15 K [mPa·s]	viscosity, 303.15 K [mPa·s]	viscosity, 308.15 K [mPa·s]	viscosity, 313.15 K [mPa·s]
x1 = 0.0833	801.7	797.1	792.46	788.12	2.502	2.135	1.832	1.525
x1 = 0.161	800.91	796.26	791.63	787.2	2.081	1.791	1.571	1.359
x1 = 0.2402	800.19	795.56	790.81	786.44	1.749	1.533	1.355	1.206
x1 = 0.3498	799.4	794.77	789.93	785.56	1.428	1.284	1.143	1.018
x1 = 0.441	798.92	794.27	789.42	785.03	1.213	1.078	0.976	0.895
x1 = 0.5609	798.55	793.86	789.01	784.61	0.981	0.886	0.82	0.76
x1 = 0.6498	798.44	793.74	788.83	784.44	0.824	0.768	0.706	0.664
x1 = 0.7398	798.47	793.74	788.83	784.43	0.671	0.638	0.603	0.572
x1 = 0.8501	798.73	793.92	789.09	784.68	0.528	0.506	0.486	0.465
x1 = 0.9405	799.06	794.23	789.47	785.05	0.434	0.417	0.397	0.38
x1 = 1	799.48	794.63	789.9	785.52	0.381	0.368	0.352	0.339
